From patent publication US9717748B2, “Compositions and methods for treating an infection” (CMPD LICENSING, LLC, priority 2015, dated 2017)

Assays:
[1] = tested on: Neisseria gonorrhoeae; assay: Expected efficacy of antibiotic agents; conditions: Gram: neg
[2] = tested on: Klebsiella (Calymmato-bacterium) granulomatis; assay: Expected efficacy of antibiotic agents; conditions: Gram: neg
[3] = tested on: Proteus vulgaris; assay: Expected efficacy of antibiotic agents; conditions: Gram: neg
[4] = tested on: Shigella sonnei; assay: Expected efficacy of antibiotic agents; conditions: Gram: neg
[5] = tested on: Haemophilus influenzae; assay: Expected efficacy of antibiotic agents; conditions: Gram: neg
[6] = tested on: Klebsiella pneumoniae; assay: Expected efficacy of antibiotic agents; conditions: Gram: neg
[7] = tested on: Shigella dysenteriae; assay: Expected efficacy of antibiotic agents; conditions: Gram: neg
[8] = tested on: Proteus mirabilis; assay: Expected efficacy of antibiotic agents; conditions: Gram: neg
[9] = tested on: Moraxella catarrhalis; assay: Expected efficacy of antibiotic agents; conditions: Gram: neg
[10] = tested on: Klebsiella oxytoca; assay: Expected efficacy of antibiotic agents; conditions: Gram: neg
[11] = tested on: Bordetella pertussis; assay: Expected efficacy of antibiotic agents; conditions: Gram: neg
[12] = tested on: Haemophilus ducreyi; assay: Expected efficacy of antibiotic agents; conditions: Gram: neg
[13] = tested on: Escherichia coli; assay: Expected efficacy of antibiotic agents; conditions: Gram: neg
[14] = tested on: Providencia stuartii; assay: Expected efficacy of antibiotic agents; conditions: Gram: neg
[15] = tested on: Brucella species; conditions: Gram: neg
[16] = tested on: Pseudomonas fluorescens; assay: Expected efficacy of antibiotic agents; conditions: Gram: neg
[17] = tested on: Citrobacter freundii; assay: Expected efficacy of antibiotic agents; conditions: Gram: neg
[18] = tested on: Shigella flexneri; assay: Expected efficacy of antibiotic agents; conditions: Gram: neg
[19] = tested on: Acinetobacter baumannii; assay: Expected efficacy of antibiotic agents; conditions: Gram: neg
[20] = tested on: Acinetobacter calcoaceticus; assay: Expected efficacy of antibiotic agents; conditions: Gram: neg
[21] = tested on: Salmonella typhi; assay: Expected efficacy of antibiotic agents; conditions: Gram: neg
[22] = tested on: Corynebacterium urealyticum; assay: Expected efficacy of antibiotic agents; conditions: Gram: pos
[23] = tested on: Acinetobacter lwoffii; assay: Expected efficacy of antibiotic agents; conditions: Gram: neg
[24] = tested on: Enterobacter cloacae; assay: Expected efficacy of antibiotic agents; conditions: Gram: neg
[25] = tested on: Bartonella bacilliformis; assay: Expected efficacy of antibiotic agents; conditions: Gram: neg
[26] = tested on: Legionella pneumophila; conditions: Gram: neg
[27] = tested on: Enterobacter aerogenes; assay: Expected efficacy of antibiotic agents; conditions: Gram: neg
[28] = tested on: Serratia marcescens; assay: Expected efficacy of antibiotic agents; conditions: Gram: neg
[29] = tested on: Shigella boydii; assay: Expected efficacy of antibiotic agents; conditions: Gram: neg
[30] = tested on: Vibrio cholerae; assay: Expected efficacy of antibiotic agents; conditions: Gram: neg
[31] = tested on: Citrobacter diversus; assay: Expected efficacy of antibiotic agents; conditions: Gram: neg
[32] = tested on: Providencia rettgeri; assay: Expected efficacy of antibiotic agents; conditions: Gram: neg
[33] = tested on: Pseudomonas aeruginosa; assay: Expected efficacy of antibiotic agents; conditions: Gram: neg
[34] = tested on: Corynebacterium jeikeium; assay: Expected efficacy of antibiotic agents; conditions: Gram: pos
[35] = tested on: Rickettsiae; conditions: Gram: neg
[36] = tested on: Neisseria meningitidis; assay: Expected efficacy of antibiotic agents; conditions: Gram: neg
[37] = tested on: Francisella tularensis; conditions: Gram: neg
[38] = tested on: Enterobacter sakazakii; assay: Expected efficacy of antibiotic agents; conditions: Gram: neg
[39] = tested on: Morganella morganii; assay: Expected efficacy of antibiotic agents; conditions: Gram: neg
[40] = tested on: Clostridium perfringens; conditions: Gram: anaer
[41] = tested on: Yersinia pestis; conditions: Gram: neg
[42] = tested on: Campylobacter jejuni; assay: Expected efficacy of antibiotic agents; conditions: Gram: neg
[43] = tested on: Enterococcus faecalis; assay: Expected efficacy of antibiotic agents; conditions: Gram: pos
[44] = tested on: Streptococcus pyogenes; assay: Expected efficacy of antibiotic agents; conditions: Gram: pos
[45] = tested on: Peptostreptococcus; assay: Expected efficacy of antibiotic agents; conditions: Gram: pos
[46] = tested on: Chlamydia pneumoniae; assay: Expected efficacy of antibiotic agents; conditions: Gram: n/a
[47] = tested on: Chlamydia psittaci; conditions: Gram: n/a
[48] = tested on: Methicillin resistant staphaureus (MRSA); assay: Expected efficacy of antibiotic agents; conditions: Gram: pos
[49] = tested on: Mycoplasma pneumoniae; assay: Expected efficacy of antibiotic agents; conditions: Gram: n/a
[50] = tested on: Bacteroides fragilis; assay: Expected efficacy of antibiotic agents; conditions: Gram: anaer
[51] = tested on: Staphylococcus aureus (MSSA); assay: Expected efficacy of antibiotic agents; conditions: Gram: pos
[52] = tested on: Clostridium difficile; assay: Expected efficacy of antibiotic agents; conditions: Gram: anaer
[53] = tested on: Enterococcus faecium; assay: Expected efficacy of antibiotic agents; conditions: Gram: pos
[54] = tested on: Haemophilus parainfluenzae; assay: Expected efficacy of antibiotic agents; conditions: Gram: neg
[55] = tested on: Diphtheroids; assay: Expected efficacy of antibiotic agents; conditions: Gram: pos
[56] = tested on: Viridans group streptococci; assay: Expected efficacy of antibiotic agents; conditions: Gram: pos
[57] = tested on: Chlamydia trachomatis; assay: Expected efficacy of antibiotic agents; conditions: Gram: n/a
[58] = tested on: Staphylococcus epidermidis; assay: Expected efficacy of antibiotic agents; conditions: Gram: pos
[59] = tested on: Streptococcus agalactiae; assay: Expected efficacy of antibiotic agents; conditions: Gram: pos

## C/C(=C\C(=O)OCCCCCCCCC(=O)O)C[C@@H]1OC[C@H](C[C@@H]2O[C@H]2[C@@H](C)[C@H](C)O)[C@@H](O)[C@H]1O [Bactroban]
[1]
  Expected efficacy against Neisseria gonorrhoeae: no
[2]
  Expected efficacy against Klebsiella (Calymmato-bacterium) granulomatis: no
[3]
  Expected efficacy against Proteus vulgaris: no
[4]
  Expected efficacy against Shigella sonnei: no
[5]
  Expected efficacy against Haemophilus influenzae: no
[6]
  Expected efficacy against Klebsiella pneumoniae: no
[7]
  Expected efficacy against Shigella dysenteriae: no
[8]
  Expected efficacy against Proteus mirabilis: no
[9]
  Expected efficacy against Moraxella catarrhalis: no
[10]
  Expected efficacy against Klebsiella oxytoca: no
[11]
  Expected efficacy against Bordetella pertussis: no
[12]
  Expected efficacy against Haemophilus ducreyi: no
[13]
  Expected efficacy against Escherichia coli: no
[14]
  Expected efficacy against Providencia stuartii: no
[15]
  Expected efficacy against Brucella species: no
[16]
  Expected efficacy against Pseudomonas fluorescens: no
[17]
  Expected efficacy against Citrobacter freundii: no
[18]
  Expected efficacy against Shigella flexneri: no
[19]
  Expected efficacy against Acinetobacter baumannii: no
[20]
  Expected efficacy against Acinetobacter calcoaceticus: no
[21]
  Expected efficacy against Salmonella typhi: no
[22]
  Expected efficacy against Corynebacterium urealyticum: no
[23]
  Expected efficacy against Acinetobacter lwoffii: no
[24]
  Expected efficacy against Enterobacter cloacae: no
[25]
  Expected efficacy against Bartonella bacilliformis: no
[26]
  Expected efficacy against Legionella pneumophila: no
[27]
  Expected efficacy against Enterobacter aerogenes: no
[28]
  Expected efficacy against Serratia marcescens: no
[29]
  Expected efficacy against Shigella boydii: no
[30]
  Expected efficacy against Vibrio cholerae: no
[31]
  Expected efficacy against Citrobacter diversus: no
[32]
  Expected efficacy against Providencia rettgeri: no
[33]
  Expected efficacy against Pseudomonas aeruginosa: no
[34]
  Expected efficacy against Corynebacterium jeikeium: no
[35]
  Expected efficacy against Rickettsiae: no
[36]
  Expected efficacy against Neisseria meningitidis: no
[37]
  Expected efficacy against Francisella tularensis: no
[38]
  Expected efficacy against Enterobacter sakazakii: no
[39]
  Expected efficacy against Morganella morganii: no
[40]
  Expected efficacy against Clostridium perfringens: no
[41]
  Expected efficacy against Yersinia pestis: no
[42]
  Expected efficacy against Campylobacter jejuni: no

## CO/N=C(\C(=O)N[C@@H]1C(=O)N2C(C(=O)O)=C(CSc3nc(=O)c(=O)[nH]n3C)CS[C@H]12)c1csc(N)n1 [Ceftriaxone]
[1]
  Expected efficacy against Neisseria gonorrhoeae: yes
[2]
  Expected efficacy against Klebsiella (Calymmato-bacterium) granulomatis: yes
[43]
  Expected efficacy against Enterococcus faecalis: no
[44]
  Expected efficacy against Streptococcus pyogenes: yes
[4]
  Expected efficacy against Shigella sonnei: yes
[6]
  Expected efficacy against Klebsiella pneumoniae: yes
[45]
  Expected efficacy against Peptostreptococcus: yes
[46]
  Expected efficacy against Chlamydia pneumoniae: no
[47]
  Expected efficacy against Chlamydia psittaci: no
[7]
  Expected efficacy against Shigella dysenteriae: yes
[8]
  Expected efficacy against Proteus mirabilis: yes
[48]
  Expected efficacy against Methicillin resistant staphaureus (MRSA): no
[9]
  Expected efficacy against Moraxella catarrhalis: yes
[11]
  Expected efficacy against Bordetella pertussis: no
[12]
  Expected efficacy against Haemophilus ducreyi: yes
[14]
  Expected efficacy against Providencia stuartii: yes
[17]
  Expected efficacy against Citrobacter freundii: yes
[18]
  Expected efficacy against Shigella flexneri: yes
[19]
  Expected efficacy against Acinetobacter baumannii: no
[20]
  Expected efficacy against Acinetobacter calcoaceticus: no
[21]
  Expected efficacy against Salmonella typhi: yes
[49]
  Expected efficacy against Mycoplasma pneumoniae: no
[22]
  Expected efficacy against Corynebacterium urealyticum: no
[23]
  Expected efficacy against Acinetobacter lwoffii: no
[24]
  Expected efficacy against Enterobacter cloacae: yes
[26]
  Expected efficacy against Legionella pneumophila: no
[30]
  Expected efficacy against Vibrio cholerae: no
[50]
  Expected efficacy against Bacteroides fragilis: yes
[32]
  Expected efficacy against Providencia rettgeri: yes
[33]
  Expected efficacy against Pseudomonas aeruginosa: no
[51]
  Expected efficacy against Staphylococcus aureus (MSSA): yes
[52]
  Expected efficacy against Clostridium difficile: no
[34]
  Expected efficacy against Corynebacterium jeikeium: no
[35]
  Expected efficacy against Rickettsiae: no
[53]
  Expected efficacy against Enterococcus faecium: no
[54]
  Expected efficacy against Haemophilus parainfluenzae: yes
[55]
  Expected efficacy against Diphtheroids: no
[37]
  Expected efficacy against Francisella tularensis: no
[38]
  Expected efficacy against Enterobacter sakazakii: yes
[56]
  Expected efficacy against Viridans group streptococci: yes
[57]
  Expected efficacy against Chlamydia trachomatis: no
[41]
  Expected efficacy against Yersinia pestis: no
[58]
  Expected efficacy against Staphylococcus epidermidis: yes
[59]
  Expected efficacy against Streptococcus agalactiae: yes
[42]
  Expected efficacy against Campylobacter jejuni: no
